Several values for one entry are separate records, joined by “and”; a condition that tells them apart may be missing. Equal values may be shown once. Read-outs that look alike come from different tables or passages of the source.
Key:
Proteus vulgaris = assay: Aerobic antibacterial MIC, standard dilution technique; format: cell-based; settings: clinical isolate, read-out: Minimum inhibitory concentration (MIC) Proteus vulgaris
Text: (§1) Antibacterial properties were investigated for the synthesized compounds against a variety of Gram-positive (Staphylococcus aureus, Enterococcus faecalis) and Gram-negative (Klebsiella pneumonia, Proteus vulgaris, Pseudomonas aeruginosa) clinical isolate bacteria utilizing the standard technique.[21]

Pseudomonas aeruginosa = assay: as above; format: cell-based; settings: clinical isolate, read-out: Minimum inhibitory concentration (MIC) Pseudomonas aeruginosa
Text: as §1

Staphylococcus aureus = assay: as above; format: cell-based; settings: clinical isolate, read-out: Minimum inhibitory concentration (MIC) Staphylococcus aureus
Text: as §1

Klebsiella pneumoniae = assay: as above; format: cell-based; settings: clinical isolate, read-out: Minimum inhibitory concentration (MIC) Klebsiella pneumoniae
Text: as §1

Enterococcus faecalis = assay: as above; format: cell-based; settings: clinical isolate, read-out: Minimum inhibitory concentration (MIC) Enterococcus faecalis
Text: as §1

Mycobacterium bovis = assay: microbe, parasite or virus in culture; format: cell-based; settings: for MIC: Mycobacterium tuberculosis variant bovis, read-out: Minimum inhibitory concentration (MIC) M. bovis; for potency relative to the standard references (M. bovis MIC): vs INH and PZA
Mycobacterium fortuitum = assay: microbe, parasite or virus in culture; format: cell-based; settings: Mycolicibacterium fortuitum
Mycobacterium marinum = assay: microbe, parasite or virus in culture; format: cell-based; settings: clinical isolate, read-out: Minimum inhibitory concentration (MIC) M. marinum
[1] = test system: M. tuberculosis Erdman strain expressing luciferase; assay: microbe, parasite or virus in culture; format: cell-based, Mycobacterium tuberculosis; settings: for inhibition at 30 µg/mL: Mycobacterium tuberculosis, ERDMAN, 168 h, read-out: Observed % growth inhibition at 30 µg/mL
[2] = test system: RPE1 (normal human immortalized retinal epithelial) cell line; assay: Antiproliferative properties by MTT technique; format: cell-based; settings: RPE1 cells, 100 μM
Method: Antiproliferative properties of the synthesized compounds were screened against RPE1 (normal human immortalized retinal epithelial) cell line to determine the toxicity/selectivity towards normal cell by the standard MTT technique.[23]
Antiproliferative properties of the synthesized compounds were tested against RPE1 (normal human immortalized retinal epithelial) cell line at 100 μM to determine the toxicity/selectivity towards normal cell by the standard MTT technique.[23]

[3] = Enterococcus faecalis, value in parentheses
[4] = M. fortuitum, observed values listed with the BMLR-QSAR model, read-out: Observed MIC (Table S6)
[5] = clinical isolate, observed MIC, read-out: Minimum inhibitory concentration (MIC) M. fortuitum
[6] = clinical isolate, read-out: Minimum inhibitory concentration (MIC) M. fortuitum
[7] = 30 μg mL^−1, pH 7.0, 7 days, vs untreated controls

Compound | MIC (Proteus vulgaris) [µg/mL] | MIC (Proteus vulgaris; value in parentheses) [µM] | MIC (Pseudomonas aeruginosa) [µg/mL] | MIC (Pseudomonas aeruginosa; value in parentheses) [µM] | MIC (Staphylococcus aureus) [µg/mL] | MIC (Staphylococcus aureus; value in parentheses) [µM] | MIC (Klebsiella pneumoniae) [µg/mL] | MIC (Klebsiella pneumoniae; value in parentheses) [µM] | MIC (Enterococcus faecalis; Enterococcus faecalis) [µg/mL] | MIC (Enterococcus faecalis; [3]) [µM] | other results
O=C(N[C@@H](Cc1ccccc1)C(=O)O)c1cnccn1 [C00008] | 0.06 | 0.22 | 0.12 | 0.44 | 64 | 236 | 64 | 236 | 0.12 | 0.44 | –
CSCC[C@H](NC(=O)c1cnccn1)C(=O)NNC(=O)c1ccncc1 [12d, (S)-N-(1-(2-Isonicotinoylhydrazineyl)-4-(methylthio)-1-oxobutan-2-yl)pyrazine-2-carboxamide] | – | – | – | – | – | – | – | – | – | – | MIC (Mycobacterium bovis): > 20 µg/mL and > 53.4 µM; melting point: 145 to 147 °C; MIC (Mycobacterium fortuitum; [4]): 53400 µM; MIC (Mycobacterium fortuitum; [5]): 53.4 µM; MIC (Mycobacterium fortuitum; [6]): 20 µg/mL; MIC (Mycobacterium marinum; observed MIC): 26.7 µM; MIC (Mycobacterium marinum): 10 µg/mL
CC[C@H](C)[C@H](NC(=O)c1cnccn1)C(=O)NNC(=O)c1ccncc1 [C00013] | 0.06 | 0.17 | 0.12 | 0.34 | 16 | 44.9 | 8 | 22.4 | 0.03 | 0.08 | –
CC[C@@H](C)[C@H](NC(=O)c1cnccn1)C(=O)O [C00006] | 0.06 | 0.25 | 0.12 | 0.51 | 16 | 67.4 | 8 | 33.7 | 0.03 | 0.13 | –
CSCC[C@H](NC(=O)c1cnccn1)C(=O)O [C00007] | 0.06 | 0.24 | 0.12 | 0.47 | 16 | 62.7 | 64 | 251 | 0.03 | 0.12 | –
O=C(NNC(=O)[C@H](Cc1ccccc1)NC(=O)c1cnccn1)c1ccncc1 [C00015] | 0.06 | 0.15 | 0.12 | 0.31 | 16 | 41 | 8 | 20.5 | 0.12 | 0.31 | –
O=C(NC(Cc1ccccc1)C(=O)O)c1cnccn1 (stereo not drawn) [C00009] | 0.06 | 0.22 | 16 | 59 | 16 | 59 | 16 | 59 | 0.03 | 0.11 | –
O=C(NNC(=O)c1ccncc1)c1ccncc1 [C00019] | 0.03 | – | 0.06 | 0.25 | 4 | – | 4 | – | 16 | – | –
CC(C)[C@H](NC(=O)c1cnccn1)C(=O)NNC(=O)c1ccncc1 [C00012] | 0.06 | 0.18 | 0.12 | 0.35 | 16 | 46.7 | 8 | 23.4 | 0.12 | – | MIC (Enterococcus faecalis; value in parentheses): 0.35 µM
NNC(=O)c1ccncc1 [INH, isoniazid] | – | – | – | – | – | – | – | – | – | – | inhibition at 30 µg/mL [1, 7]: > 70%; MIC (Mycobacterium bovis): 146 µM and 20 µg/mL; MIC (Mycobacterium fortuitum; [5]): 146 µM; MIC (Mycobacterium fortuitum; [6]): 20 µg/mL; MIC (Mycobacterium marinum; observed MIC): 72.9 µM; MIC (Mycobacterium marinum): 10 µg/mL
O=C(N[C@@H](Cc1ccccc1)C(=O)O)c1cnccn1 [10e, (Pyrazine-2-carbonyl)-L-phenylalanine] | – | – | – | – | – | – | – | – | – | – | inhibition at 30 µg/mL [1, 7]: 60.4%; MIC (Mycobacterium bovis): > 20 µg/mL and > 73.7 µM; Percentage of cell proliferation ± SD [2]: 90.4 ± 3.3%; MIC (Mycobacterium fortuitum; [5]): > 73.7 µM; MIC (Mycobacterium fortuitum; [6]): > 20 µg/mL; MIC (Mycobacterium marinum; observed MIC): > 73.7 µM; MIC (Mycobacterium marinum): > 20 µg/mL
O=C(N[C@@H](Cc1c[nH]c2ccccc12)C(=O)O)c1cnccn1 [C00010] | 0.06 | 0.19 | 0.12 | 0.39 | 64 | 206 | 64 | 206 | 0.03 | 0.1 | –
O=C(NC(Cc1ccccc1)C(=O)O)c1cnccn1 (racemic) [10f, (Pyrazine-2-carbonyl)-DL-phenylalanine] | – | – | – | – | – | – | – | – | – | – | MIC (Mycobacterium bovis): > 20 µg/mL and > 73.7 µM; Percentage of cell proliferation ± SD [2]: 86.5 ± 4.2%; MIC (Mycobacterium fortuitum; [5]): > 73.7 µM; MIC (Mycobacterium fortuitum; [6]): > 20 µg/mL; MIC (Mycobacterium marinum; observed MIC): 73.7 µM; MIC (Mycobacterium marinum): 20 µg/mL
CSCC[C@H](NC(=O)c1cnccn1)C(=O)NNC(=O)c1ccncc1 [C00014] | 0.06 | 0.16 | 0.12 | 0.32 | 64 | 171 | 4 | 10.7 | 0.03 | 0.08 | –
O=C(NNC(=O)C(Cc1ccccc1)NC(=O)c1cnccn1)c1ccncc1 (stereo not drawn) [C00016] | 16 | 41 | 32 | 82 | 16 | 41 | 8 | 20.5 | 0.03 | 0.08 | –
O=C(NNC(=O)c1ccncc1)c1ccncc1 [compound 16, N′-Isonicotinoylisonicotinohydrazide] | – | 0.12 | – | – | – | 16.5 | – | 16.5 | – | 66 | inhibition at 30 µg/mL [1, 7]: 78.1%; MIC (Mycobacterium bovis): 82.6 µM and 20 µg/mL; potency relative to the standard references (M. bovis MIC) (Mycobacterium bovis): 1.8–2.0 folds; Percentage of cell proliferation ± SD [2]: 83.5 ± 7.4%; MIC (Mycobacterium fortuitum; [4]): 82600 µM; MIC (Mycobacterium fortuitum; [5]): 82.6 µM; MIC (Mycobacterium fortuitum; [6]): 20 µg/mL; MIC (Mycobacterium marinum; observed MIC): 82.6 µM; MIC (Mycobacterium marinum): 20 µg/mL
NC(=O)c1cnccn1 [C00001] | 8 | 65 | 4 | 32.5 | 1020 | 8320 | 64 | 520 | 0.12 | 0.97 | –
O=C(NNC(=O)c1cnccn1)c1ccncc1 [compound 13, N′-Isonicotinoylpyrazine-2-carbohydrazide] | – | 263 | – | – | – | 32.9 | – | 32.9 | – | 65.8 | growth inhibition at 3 μg mL^−1 ([1]; 3 μg mL^−1, pH 7.0, compared with INH (>70% at 30 μg mL^−1)): same growth inhibition; inhibition at 30 µg/mL [1, 7]: 90.1%; MIC (Mycobacterium bovis): 82.2 µM and 20 µg/mL; potency relative to the standard references (M. bovis MIC) (Mycobacterium bovis): 1.8–2.0 folds; Percentage of cell proliferation ± SD [2]: 88.2 ± 5.1%; MIC (Mycobacterium fortuitum; [4]): 41100 µM; MIC (Mycobacterium fortuitum; [5]): 41.1 µM; MIC (Mycobacterium fortuitum; [6]): 10 µg/mL; MIC (Mycobacterium marinum; observed MIC): 41.1 µM; MIC (Mycobacterium marinum): 10 µg/mL
CC(C)C[C@H](NC(=O)c1cnccn1)C(=O)O [C00004] | 8 | 33.7 | 0.03 | 0.13 | 1020 | 4320 | 64 | 270 | 0.03 | 0.13 | –
NC(=O)c1cnccn1 [PZA, pyrazinamide, reference compound] | – | – | – | – | – | – | – | – | – | – | Observed % growth inhibition at 30 µg/mL [1, 7]: not observed; MIC (Mycobacterium bovis): 162 µM and 20 µg/mL; MIC (Mycobacterium fortuitum; [4]): 81200 µM; MIC (Mycobacterium fortuitum; [5]): 81.2 µM; MIC (Mycobacterium fortuitum; [6]): 10 µg/mL; MIC (Mycobacterium marinum; observed MIC): 81.2 µM; MIC (Mycobacterium marinum): 10 µg/mL
O=C(NNC(=O)[C@H](Cc1c[nH]c2ccccc12)NC(=O)c1cnccn1)c1ccncc1 [C00017] | 0.06 | 0.14 | 0.12 | 0.28 | 16 | 37.3 | 4 | 9.31 | 0.03 | 0.07 | –
CC(C)C[C@H](NC(=O)c1cnccn1)C(=O)NNC(=O)c1ccncc1 [C00011] | 0.06 | 0.17 | 64 | 180 | 2 | 5.61 | 4 | 11.2 | 0.03 | 0.08 | –
NNC(=O)c1ccncc1 [C00002] | 64 | 467 | 64 | 467 | 64 | 467 | 8 | 58.3 | 16 | 117 | –
O=C(NNC(=O)c1cnccn1)c1ccncc1 [C00018] | 64 | – | 0.03 | 0.12 | 8 | – | 8 | – | 16 | – | –
CC(C)[C@H](NC(=O)c1cnccn1)C(=O)O [C00005] | 0.06 | 0.27 | 4 | 17.9 | 512 | 2290 | 0.03 | 0.13 | 0.03 | – | –
